Laboratory results published in patent US20100298141A1, “SUBSTITUTED PYRIDINE N-OXIDE HERBICIDES” (E. I. DU PONT DE NEMOURS AND COMPANY, priority 2007, published 2010).

Legend:
Experiment in all cases: Test F preemergence test
Conditions in all cases: scale 0 to 100
green foxtail = format: in vivo, Setaria viridis
From the text: (§1) Seeds of plant species selected from bermudagrass (Cynodon dactylon), Surinam grass (Brachiaria decumbens), large crabgrass (Digitaria sanguinalis), green foxtail (Setaria viridis), goosegrass (Eleusine indica), johnsongrass (Sorghum halepense), kochia (Kochia scoparia), pitted morningglory (Ipomoea lacunosa), purple nutsedge (Cyperus rotundus), common ragweed (Ambrosia elation), mustard (Brassica nigra), guineagrass (Panicum maximum), […] (Paspalum dilatatum), barnyardgrass (Echinochloa crus-galli), southern sandbur (Cenchrus echinatus), common sowthistle (Sonchus oleraceous), prickly […] spinosa), Italian ryegrass (Lolium multiflorum), common purslane (Portulaca oleracea), broadleaf signalgrass (Brachiaria platyphylla), common groundsel (Senecio vulgaris), common chickweed (Stellaria media), Virginia dayflower (Commelina virginica), annual bluegrass (Poa annua), naked crabgrass (Digitaria nuda), […] cochinchinensis), quackgrass (Elytrigia repens), Canada horseweed (Conyza canadensis), field bindweed (Convolvulus arvensis), […] (Bidens bipinnata), common mallow (Malva sylvestris), Russian thistle (Salsola kali), and sugarcane (Saccharum officinarum) were planted and treated preemergence with test chemicals formulated in a non-phytotoxic solvent mixture which included a surfactant. At a different time, sugarcane was treated with postemergence applications of some of the test chemicals formulated in the same manner. Plants were approximately 3- to 4-leaf stage for the postemergence treatments. Treated plants and controls were maintained in a greenhouse for 14 to 21 days, after which time all species were compared to controls and visually evaluated. […] A dash (-) response means no test result.

mustard = format: in vivo, Brassica nigra
From the text: as §1

guineagrass = format: in vivo, Panicum maximum
From the text: as §1

dallisgrass = format: in vivo, Paspalum dilatatum
From the text: as §1

barnyardgrass = format: in vivo, Echinochloa crus-galli
From the text: as §1

southern sandbur = format: in vivo, Cenchrus echinatus
From the text: as §1

prickly sida = format: in vivo, Sida spinosa
From the text: as §1

common purslane = format: in vivo, Portulaca oleracea
From the text: as §1

common groundsel = format: in vivo, Senecio vulgaris
From the text: as §1

itchgrass = format: in vivo, Rottboellia cochinchinensis
From the text: as §1

quackgrass = format: in vivo, Elytrigia repens
From the text: as §1

field bindweed = format: in vivo, Convolvulus arvensis
From the text: as §1

common mallow = format: in vivo, Malva sylvestris
From the text: as §1

Cn1nc(C(F)(F)F)c(C[S+]([O-])c2cccc[n+]2[O-])c1Cl (stereo not drawn) [Compound 8]
100: Guineagrass plant response rating (guineagrass; 125 g ai/ha, preemergence) | Barnyardgrass plant response rating (barnyardgrass; 125 g ai/ha, preemergence) | Sandbur plant response rating (southern sandbur; 125 g ai/ha, preemergence)
65: Groundsel plant response rating (common groundsel; 62 g ai/ha, Preemergence)
98: Guineagrass plant response rating (guineagrass; 62 g ai/ha, Preemergence) | Dallisgrass plant response rating (dallisgrass; 125 g ai/ha, preemergence)
0: Plant response rating, Foxtail, Green (green foxtail; Preemergence, 16 g ai/ha) | Plant response rating, Black Mustard (mustard; Preemergence, 16 g ai/ha) | Plant response rating, Dallisgrass (dallisgrass; Preemergence, 16 g ai/ha) | Plant response rating, Purslane (common purslane; Preemergence, 16 g ai/ha) | Plant response rating, Purslane (common purslane; Preemergence, 31 g ai/ha) | Plant response rating, Groundsel (common groundsel; Preemergence, 16 g ai/ha) | Plant response rating, Groundsel (common groundsel; Preemergence, 31 g ai/ha) | Plant response rating, Itchgrass (itchgrass; Preemergence, 16 g ai/ha) | Plant response rating, Quackgrass (quackgrass; Preemergence, 16 g ai/ha) | Plant response rating, Quackgrass (quackgrass; Preemergence, 31 g ai/ha) | Plant response rating, Field Bindweed (field bindweed; Preemergence, 16 g ai/ha) | Plant response rating, Field Bindweed (field bindweed; Preemergence, 31 g ai/ha)
70: Plant response rating, Foxtail, Green (green foxtail; Preemergence, 31 g ai/ha) | Plant response rating, Black Mustard (mustard; Preemergence, 31 g ai/ha) | Plant response rating, Barnyardgrass (barnyardgrass; Preemergence, 16 g ai/ha) | Prickly Sida plant response rating (prickly sida; 62 g ai/ha, Preemergence) | Quackgrass plant response rating (quackgrass; 125 g ai/ha, preemergence) | Field Bindweed plant response rating (field bindweed; 125 g ai/ha, preemergence)
20: Plant response rating, Dallisgrass (dallisgrass; Preemergence, 31 g ai/ha) | Plant response rating, Prickly Sida (prickly sida; Preemergence, 16 g ai/ha) | Plant response rating, Prickly Sida (prickly sida; Preemergence, 31 g ai/ha) | Purslane plant response rating (common purslane; 125 g ai/ha, preemergence)
80: Foxtail, Green plant response rating (green foxtail; 62 g ai/ha, Preemergence) | Black Mustard plant response rating (mustard; 62 g ai/ha, Preemergence) | Dallisgrass plant response rating (dallisgrass; 62 g ai/ha, Preemergence) | Plant response rating, Barnyardgrass (barnyardgrass; Preemergence, 31 g ai/ha) | Sandbur plant response rating (southern sandbur; 62 g ai/ha, Preemergence) | Groundsel plant response rating (common groundsel; 125 g ai/ha, preemergence) | Itchgrass plant response rating (itchgrass; 62 g ai/ha, Preemergence) | Mallow plant response rating (common mallow; 125 g ai/ha, preemergence)
95: Black Mustard plant response rating (mustard; 125 g ai/ha, preemergence) | Barnyardgrass plant response rating (barnyardgrass; 62 g ai/ha, Preemergence) | Itchgrass plant response rating (itchgrass; 125 g ai/ha, preemergence)
35: Plant response rating, Guineagrass (guineagrass; Preemergence, 16 g ai/ha)
60: Plant response rating, Guineagrass (guineagrass; Preemergence, 31 g ai/ha) | Mallow plant response rating (common mallow; 62 g ai/ha, Preemergence)
40: Quackgrass plant response rating (quackgrass; 62 g ai/ha, Preemergence)
15: Purslane plant response rating (common purslane; 62 g ai/ha, Preemergence) | Plant response rating, Itchgrass (itchgrass; Preemergence, 31 g ai/ha) | Field Bindweed plant response rating (field bindweed; 62 g ai/ha, Preemergence)
10: Plant response rating, Sandbur (southern sandbur; Preemergence, 31 g ai/ha)
90: Foxtail, Green plant response rating (green foxtail; 125 g ai/ha, preemergence) | Prickly Sida plant response rating (prickly sida; 125 g ai/ha, preemergence)
30: Plant response rating, Mallow (common mallow; Preemergence, 16 g ai/ha) | Plant response rating, Mallow (common mallow; Preemergence, 31 g ai/ha)
